Laboratory results published in the supplement of paper PMC10307832.

Experiments:
Experiment in all cases: relative viability (nuclei count vs DMSO), 5 days (fraction); higher = more cells survive
Bortezomib + Vorinostat = compound: CC(C)C[C@H](NC(=O)[C@H](Cc1ccccc1)NC(=O)c1cnccn1)B(O)O [Bortezomib] + O=C(CCCCCCC(=O)Nc1ccccc1)NO [Vorinostat] (partner 1 µM)
Summary of the method: (§1)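 Dosing by pin tool came one day after lung cancer cell lines were seeded in 1536-well plates, using either one drug or a fixed anchor-drug dose plus five library-drug doses (not always all listed) in √10 steps. After 5 days, nuclei were counted on 4× images. Relative viability is treated-well nuclei count divided by vehicle-well nuclei count, and values are medians of duplicate plates.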

Obatoclax + Pictilisib = compound: COC1=CC(c2cc3ccccc3[nH]2)=N/C1=C\c1[nH]c(C)cc1C [Obatoclax] + CS(=O)(=O)N1CCN(Cc2cc3nc(-c4cccc5[nH]ncc45)nc(N4CCOCC4)c3s2)CC1 [Pictilisib] (partner 1 µM)
Summary of the method: as §1

Bortezomib + OSI-027 = compound: CC(C)C[C@H](NC(=O)[C@H](Cc1ccccc1)NC(=O)c1cnccn1)B(O)O [Bortezomib] + COc1cccc2cc(-c3nc([C@H]4CC[C@H](C(=O)O)CC4)n4ncnc(N)c34)[nH]c12 [OSI-027] (partner 0.5 µM)
Summary of the method: as §1

[1] = compound: CC1=CC(=NN1)NC2=CC(=NC(=N2)/C=C/C3=CC=CC=C3)N4CCN(CC4)C + CS(=O)(=O)CCNCc1ccc(-c2ccc3ncnc(Nc4ccc(OCc5cccc(F)c5)c(Cl)c4)c3c2)o1 [Lapatinib] (partner 2 µM)
Summary of the method: as §1

Row | Cell Line | relative viability (Bortezomib + Vorinostat; first compound 0.0002 µM) | relative viability (Bortezomib + Vorinostat; first compound 0.000632 µM) | relative viability (Bortezomib + Vorinostat; first compound 0.002 µM) | relative viability (Bortezomib + Vorinostat; first compound 0.006325 µM) | relative viability (Bortezomib + Vorinostat; first compound 0.02 µM) | relative viability (Obatoclax + Pictilisib; first compound 0.01 µM) | relative viability (Obatoclax + Pictilisib; first compound 0.03162 µM) | relative viability (Obatoclax + Pictilisib; first compound 0.1 µM) | relative viability (Obatoclax + Pictilisib; first compound 0.3162 µM) | relative viability (Obatoclax + Pictilisib; first compound 1 µM) | relative viability (Bortezomib + OSI-027; first compound 0.0002 µM) | relative viability (Bortezomib + OSI-027; first compound 0.000632 µM) | relative viability (Bortezomib + OSI-027; first compound 0.002 µM) | relative viability (Bortezomib + OSI-027; first compound 0.006325 µM) | relative viability (Bortezomib + OSI-027; first compound 0.02 µM) | relative viability ([1]; first compound 0.08 µM) | relative viability ([1]; first compound 0.253 µM) | relative viability ([1]; first compound 0.8 µM) | relative viability ([1]; first compound 2.53 µM) | relative viability ([1]; first compound 8 µM)
1 | NCI-H441 | 0.865 | 0.803 | 0.243 | 0.138 | 0.141 | 0.442 | 0.451 | 0.412 | 0.338 | 0.348 | 0.648 | 0.38 | 0.233 | 0.154 | 0.188 |  |  |  |  | 
2 | NCI-H1563 |  |  |  |  |  | 0.615 | 0.639 | 0.644 | 0.655 | 0.634 | 0.795 | 0.751 | 0.653 | 0.519 | 0.485 | 0.905 | 0.784 | 0.91 | 0.667 | 0.403
3 | NCI-H1703 |  |  |  |  |  | 0.263 | 0.221 | 0.216 | 0.203 | 0.2 |  |  |  |  |  | 1.11 | 0.975 | 0.373 | 0.177 | 0.167
4 | NCI-H1648 | 0.295 | 0.395 | 0.268 | 0.264 | 0.241 |  |  |  |  |  | 0.256 | 0.293 | 0.251 | 0.256 | 0.229 |  |  |  |  | 
5 | LCLC-103H | 0.791 | 0.773 | 0.827 | 0.359 | 0.236 | 0.602 | 0.565 | 0.719 | 0.612 | 0.65 | 0.482 | 0.511 | 0.492 | 0.201 | 0.14 |  |  |  |  | 
6 | NCI-H1792 |  |  |  |  |  | 0.31 | 0.26 |  | 0.281 | 0.377 | 0.687 | 0.577 | 0.563 | 0.654 | 0.497 | 0.862 | 0.861 | 0.892 | 0.841 | 0.145
7 | SW 900 | 0.482 | 0.54 | 0.163 | 0.169 | 0.173 |  |  |  |  |  | 0.527 | 0.414 | 0.143 | 0.0928 | 0.108 |  |  |  |  | 
8 | EBC-1 |  |  |  |  |  | 0.376 | 0.284 | 0.257 | 0.214 | 0.177 |  |  |  |  |  | 0.214 | 0.223 | 0.254 | 0.209 | 0.153
9 | NCI-H1299 |  |  |  |  |  | 0.74 | 0.937 | 0.637 | 0.447 | 0.129 |  |  |  |  |  | 0.955 | 0.977 | 0.982 | 0.685 | 0.257
10 | A549 |  |  |  |  |  | 0.509 | 0.7 | 0.448 | 0.442 | 0.0671 |  |  |  |  |  | 0.924 | 0.954 | 0.772 | 0.102 | 0.0367
11 | NCI-H1623 |  |  |  |  |  |  |  |  |  |  | 0.434 | 0.473 | 0.468 | 0.36 | 0.295 |  |  |  |  | 
12 | IA-LM | 0.955 | 0.788 | 0.806 | 0.674 | 0.008 | 0.345 | 0.326 | 0.315 | 0.113 | 0.0716 |  |  |  |  |  |  | 0.885 | 0.961 | 0.638 | 0.113
